Molecular target: H1047R PIK3CA enzyme (Homo sapiens, UniProt P42336, H1047R)
Assay: ADP-Glo Biochemical PIK3CA Kinase Assay

H1047R PIK3CA enzyme, sequence (P42336 whole entry H1047R): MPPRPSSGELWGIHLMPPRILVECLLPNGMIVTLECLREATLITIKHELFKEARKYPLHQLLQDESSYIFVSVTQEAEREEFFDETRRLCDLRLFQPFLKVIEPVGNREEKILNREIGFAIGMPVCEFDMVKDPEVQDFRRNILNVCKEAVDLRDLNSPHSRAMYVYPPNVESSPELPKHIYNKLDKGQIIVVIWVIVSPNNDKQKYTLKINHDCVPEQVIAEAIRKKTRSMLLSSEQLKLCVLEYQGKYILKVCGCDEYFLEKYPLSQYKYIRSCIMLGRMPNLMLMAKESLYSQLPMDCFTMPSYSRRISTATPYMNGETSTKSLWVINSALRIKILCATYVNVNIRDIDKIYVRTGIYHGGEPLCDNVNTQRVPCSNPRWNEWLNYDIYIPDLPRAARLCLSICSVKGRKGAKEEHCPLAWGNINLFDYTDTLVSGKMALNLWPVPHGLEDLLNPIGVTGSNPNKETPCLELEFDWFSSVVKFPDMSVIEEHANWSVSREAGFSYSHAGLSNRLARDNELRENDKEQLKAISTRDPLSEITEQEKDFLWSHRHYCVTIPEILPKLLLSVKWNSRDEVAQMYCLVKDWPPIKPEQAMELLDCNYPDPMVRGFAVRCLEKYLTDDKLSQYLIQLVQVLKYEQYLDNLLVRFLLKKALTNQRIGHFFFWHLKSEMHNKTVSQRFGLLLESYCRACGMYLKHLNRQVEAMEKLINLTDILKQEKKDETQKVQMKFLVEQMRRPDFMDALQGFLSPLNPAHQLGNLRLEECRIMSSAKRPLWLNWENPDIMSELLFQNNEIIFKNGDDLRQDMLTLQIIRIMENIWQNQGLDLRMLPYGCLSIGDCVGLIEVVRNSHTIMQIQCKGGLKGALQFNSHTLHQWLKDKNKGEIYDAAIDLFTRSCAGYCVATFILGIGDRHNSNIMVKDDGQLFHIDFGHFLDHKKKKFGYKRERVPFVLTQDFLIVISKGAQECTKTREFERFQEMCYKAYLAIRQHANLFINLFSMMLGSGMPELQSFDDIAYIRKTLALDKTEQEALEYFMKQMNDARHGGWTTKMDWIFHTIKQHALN
H1047R PIK3CA enzyme, sequence (P27986 whole entry partner): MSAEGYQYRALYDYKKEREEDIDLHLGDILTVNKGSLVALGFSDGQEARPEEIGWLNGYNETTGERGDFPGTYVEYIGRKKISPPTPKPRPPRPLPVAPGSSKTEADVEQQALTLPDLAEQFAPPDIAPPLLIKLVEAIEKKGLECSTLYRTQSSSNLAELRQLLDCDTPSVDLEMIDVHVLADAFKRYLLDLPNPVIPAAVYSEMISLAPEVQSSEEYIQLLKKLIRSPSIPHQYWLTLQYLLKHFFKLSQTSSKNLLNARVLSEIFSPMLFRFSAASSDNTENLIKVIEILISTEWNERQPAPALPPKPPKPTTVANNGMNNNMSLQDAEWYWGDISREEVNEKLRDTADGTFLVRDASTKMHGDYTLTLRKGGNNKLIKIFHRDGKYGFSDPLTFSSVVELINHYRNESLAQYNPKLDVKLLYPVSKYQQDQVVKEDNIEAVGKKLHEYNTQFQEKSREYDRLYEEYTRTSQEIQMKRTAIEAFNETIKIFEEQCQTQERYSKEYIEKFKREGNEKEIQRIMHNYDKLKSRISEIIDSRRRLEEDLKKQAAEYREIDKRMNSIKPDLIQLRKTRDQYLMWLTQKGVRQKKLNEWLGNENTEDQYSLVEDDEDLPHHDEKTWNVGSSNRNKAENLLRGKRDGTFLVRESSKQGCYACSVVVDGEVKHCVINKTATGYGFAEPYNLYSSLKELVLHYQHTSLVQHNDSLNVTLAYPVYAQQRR

| IC50 [nM] | Structure (SMILES) |
| --- | --- |
| 100 to 500 | Cc1ccccc1C1NC(=O)c2c(C)ccc(NC(=O)c3csc4ccccc34)c21 (stereo not drawn) [Compound I-153, N-(7-Methyl-1-oxo-3-(o-tolyl)isoindolin-4-yl)benzo[b]thiophene-3-carboxamide] |
| 10000 to 100000 | Cc1ccccc1[C@H]1NC(=O)c2cccc(NC(=O)c3coc4c(F)cc(F)cc34)c21 [Compound I-97] |
| ≤ 100 | O=C(Nc1cc(CS(=O)(=O)Cc2ccncc2)cc2c1C(c1cc(F)ccc1Cl)NC2=O)c1cc(F)cc(C(F)(F)F)c1 (stereo not drawn) [Compound I-1470] |
| 100 to 500 | CC(C)(O)c1cc(NC(=O)c2cc(F)cc(C(F)(F)F)c2)c2c(n1)C(=O)N[C@H]2c1cc(F)ccc1Cl [Compound I-272] |
| 10000 to 100000 | CC(C(CO)CC(=O)Nc1cccc2c1C(c1cc(F)ccc1Cl)NC2=O)C(F)(F)F (mixture of isomers) [Compound I-2197] |
| ≤ 100 | O=C1C=C(c2cc(NC(=O)c3cc(F)cc(C(F)(F)F)c3)c3c(c2)C(=O)NC3c2cc(F)ccc2Cl)CO1 (stereo not drawn) [Compound I-1587] |
| 10000 to 100000 | O=C1N[C@@H](c2cc(F)ccc2Cl)c2c(NC(=O)[C@H]3CC[C@@H](O)C3)cc(Br)cc21 (single isomer, unassigned) [Compound I-2102] |
| 10000 to 100000 | O=C1NC(c2cc(F)ccc2Cl)c2c(NC(=O)N3CCCCCC3)cc(Br)cc21 (stereo not drawn) [Compound I-577] |
| 10000 to 100000 | Cc1ccccc1C1NC(=O)c2cccc(NCc3nsc4ccccc34)c21 (stereo not drawn) [Compound I-145] |
| 1000 to 10000 | O=C1NC(c2cc(F)ccc2Cl)c2c(Nc3nc4ccccc4[nH]3)cc(-c3ccc4ncnn4c3)cc21 (stereo not drawn) [Compound I-1727] |
| 10000 to 100000 | O=C1N[C@@H](c2cc(F)ccc2Cl)c2c(NC(=O)[C@@H]3CCC[C@@H](OC(F)(F)F)C3)cccc21 (single isomer, unassigned) [Compound I-2216] |
| 100 to 500 | O=C1NC(c2cc(F)ccc2Cl)c2c(NC(=O)C34CC5CC(CC(C5)C3)C4)cccc21 (stereo not drawn) [Compound I-876] |
| ≤ 100 | O=C(Nc1cc(-c2ccc3c(c2)OCCCO3)cc2c1C(c1cc(F)ccc1Cl)NC2=O)c1cc(F)cc(C(F)(F)F)c1 (stereo not drawn) [Compound I-851] |
| 1000 to 10000 | NC1CN(C(=O)Nc2cc(Br)cc3c2C(c2cc(F)ccc2Cl)NC3=O)c2ccccc21 (stereo not drawn) [Compound I-2042] |
| 10000 to 100000 | O=C1NC(c2cc(F)ccc2Cl)c2c(Nc3cn[nH]c3)cc(Br)cc21 (stereo not drawn) [Compound I-2056] |
| 500 to 1000 | C[C@@H]([C@@H]1C[C@H](O)CN1C(=O)Nc1cccc2c1[C@H](c1cc(F)ccc1Cl)NC2=O)C(F)(F)F (single isomer, unassigned) [Compound I-2393] |
| 100 to 500 | O=C1NC(c2cccc(F)c2F)c2c(NC(=O)c3csc4ccccc34)ccnc21 (stereo not drawn) [Compound I-15, N-(5-(2,3-Difluorophenyl)-7-oxo-6,7-dihydro-5H-pyrrolo[3,4-b]pyridin-4-yl)benzo[b]thiophene-3-carboxamide] |
| 500 to 1000 | Cc1cc(F)ccc1C1NC(=O)c2cccc(NC(=O)c3cc(F)cc(C(F)(F)F)c3)c21 (stereo not drawn) [Compound I-327] |
| 1000 to 10000 | Cn1nccc1Nc1cc(NC(=O)c2cc(F)cc(C(F)(F)F)c2)c2c(c1)C(=O)N[C@@H]2c1cc(F)ccc1Cl [Compound I-1145] |
| ≤ 100 | O=C(Nc1cc(N[C@H]2C[C@H](O)C2)cc2c1C(c1cc(F)ccc1Cl)NC2=O)c1cc(F)cc(C(F)(F)F)c1 (single isomer, unassigned) [Compound I-609] |
| 100 to 500 | O=C(Nc1cnc(N2CC(F)(F)C2)c2c1C(c1cc(F)ccc1Cl)NC2=O)c1cc(F)cc(C(F)(F)F)c1 (stereo not drawn) [Compound I-320] |
| 10000 to 100000 | O=C1NC(c2cc(F)ccc2Cl)c2c(Nc3nnc4n3CCCC4)cc(-c3ccc4ncnn4c3)cc21 (stereo not drawn) [Compound I-2059] |
| ≤ 100 | CN1CCN(c2cc(NC(=O)c3cc(F)cc(C(F)(F)F)c3)c3c(c2)C(=O)NC3c2cc(F)ccc2Cl)CC1=O (stereo not drawn) [Compound I-1249] |
| ≤ 100 | CS(=O)(=O)c1ccc(-c2cc(NC(=O)c3cc(F)cc(C(F)(F)F)c3)c3c(c2)C(=O)NC3c2cc(F)ccc2Cl)nc1 (stereo not drawn) [Compound I-1456] |
| ≤ 100 | CC(C)(O)c1cc(NC(=O)N2CCc3ccccc32)c2c(c1)C(=O)NC2c1cc(F)ccc1Cl (stereo not drawn) [Compound I-308] |

More lines, now with the values behind:

| Structure (SMILES) | IC50 [nM] |
| --- | --- |
| Cc1ccccc1C1NC(=O)Nc2cccc(OC(=O)c3csc4ccccc34)c21 (stereo not drawn) [Compound I-295] | 1000 to 10000 |
| O=C1NC(c2cc(F)ccc2Cl)c2c(NC(=O)N3CCCC(C(F)(F)F)C3)cc(Br)cc21 (mixture of isomers) [Compound I-432] | 500 to 1000 |
| COc1cccc2scc(C(=O)Nc3cccc4c3C(c3ccccc3C)NC4=O)c12 (stereo not drawn) [Compound I-78] | 10000 to 100000 |
| C[C@@]1(C(=O)Nc2cc(Br)cc3c2[C@@H](c2cc(F)ccc2Cl)NC3=O)CCC[C@H](C(F)(F)F)C1 (single isomer, unassigned) [Compound I-2260] | 500 to 1000 |
| O=C(O)c1cc(-c2ccc3ncnn3c2)cc2c1C(c1cc(F)ccc1Cl)NC2=O (stereo not drawn) [Compound I-1784] | 10000 to 100000 |
| O=C(Nc1cc(Br)cc2c1C(c1cc(F)ccc1Cl)NC2=O)c1cc(F)cc2c1NC(=O)C2(F)F (stereo not drawn) [Compound I-1381] | 100 to 500 |
| Cc1ccccc1[C@@H]1NC(=O)c2nccc(NC(=O)N3C[C@@H](C)c4ccccc43)c21 (single isomer, unassigned) [Compound I-303] | 10000 to 100000 |
| O=C1NC(c2ccccc2Cl)c2c(NC(=O)c3coc4c(F)cc(F)cc34)ccnc21 (stereo not drawn) [Compound I-209] | 500 to 1000 |
| O=C(Nc1cccc2c1C(c1ccccc1C1CC1)NC2=O)c1cc(F)cc(C(F)(F)F)c1 (stereo not drawn) [Compound I-925] | 100 to 500 |
| COc1cccc(-c2cc(NC(=O)c3cc(F)cc(C(F)(F)F)c3)c3c(c2)C(=O)NC3c2cc(F)ccc2Cl)n1 (stereo not drawn) [Compound I-891] | ≤ 100 |
| O=C(Nc1cc(Nc2cn[nH]c2)cc2c1[C@H](c1cc(F)ccc1Cl)NC2=O)c1cc(F)cc(C(F)(F)F)c1 [Compound I-1258] | ≤ 100 |
| N#Cc1nc2ccc(-c3cc(NC(=O)c4cc(F)cc(C(F)(F)F)c4)c4c(c3)C(=O)NC4c3cc(F)ccc3Cl)cn2n1 (stereo not drawn) [Compound I-1707] | ≤ 100 |
| O=C(Nc1cc(CS(=O)(=O)N2CCOCC2)cc2c1[C@@H](c1cc(F)ccc1Cl)NC2=O)c1cc(F)cc(C(F)(F)F)c1 [Compound I-1484] | 1000 to 10000 |
| Cn1cc(NS(=O)(=O)Cc2cc(NC(=O)c3cc(F)cc(C(F)(F)F)c3)c3c(c2)C(=O)NC3c2cc(F)ccc2Cl)cn1 (stereo not drawn) [Compound I-1535] | ≤ 100 |
| CC(=O)NCc1cc(NC(=O)c2cc(F)cc(C(F)(F)F)c2)c2c(c1)C(=O)NC2c1cc(F)ccc1Cl (stereo not drawn) [Compound I-207] | 100 to 500 |
| O=C1NC(c2cc(F)ccc2Cl)c2c(NC(=O)N3CCC(C(F)(F)F)CC3)cc(Br)cc21 (stereo not drawn) [Compound I-430] | 1000 to 10000 |
| [2H]C([2H])(c1cc(NC(=O)c2cc(F)cc(C(F)(F)F)c2)c2c(c1)C(=O)N[C@H]2c1cc(F)ccc1Cl)S(C)(=O)=O (single isomer, unassigned) [Compound I-1789] | ≤ 100 |
| NC1(C(F)(F)F)CC(C(=O)Nc2cc(Br)cc3c2C(c2cc(F)ccc2Cl)NC3=O)C1 (stereo not drawn) [Compound I-1632] | 10000 to 100000 |
| O=C(Nc1cc(NC(=O)C2CNC2)cc2c1C(c1cc(F)ccc1Cl)NC2=O)c1cc(F)cc(C(F)(F)F)c1 (stereo not drawn) [Compound I-389] | 100 to 500 |

| Structure (SMILES) | IC50 [nM] |
| --- | --- |
| O=C1NC(c2cc(F)ccc2Cl)c2c(NC(=O)N3CCCC(O)C3)cc(-c3ccc4ncnn4c3)cc21 (stereo not drawn) [Compound I-1721] | 10000 to 100000 |
| N#Cc1cnn(-c2cc(NC(=O)N3C[C@H](O)c4cc(F)ccc43)c3c(c2)C(=O)N[C@@H]3c2cc(F)ccc2Cl)c1 (single isomer, unassigned) [Compound I-2406] | 1000 to 10000 |
| O=C1NC(c2cc(F)ccc2Cl)c2c(Nc3nccc4ccsc34)cc(Br)cc21 (stereo not drawn) [Compound I-1461] | 10000 to 100000 |
| O=C1N[C@H](c2cc(F)ccc2Cl)c2c(NC(=O)N3C[C@H](O)c4cc(F)c(F)cc43)cccc21 (single isomer, unassigned) [Compound I-2294] | 10000 to 100000 |
| Cc1ccccc1C1NC(=O)c2c(CCO)ccc(NC(=O)c3csc4ccccc34)c21 (stereo not drawn) [Compound I-119] | ≤ 100 |
| Nc1cc(NC(=O)c2cc(F)cc(C(F)(F)F)c2)c2c(c1)C(=O)NC2c1ccccc1Cl (stereo not drawn) [Compound I-393] | ≤ 100 |
| O=C1NC(c2cc(F)ccc2Cl)c2c(NC3CCNCC3)cc(-c3ccc4ncnn4c3)cc21 (stereo not drawn) [Compound I-2024] | 10000 to 100000 |
| O=C(Nc1cc(-c2ccn3ncnc3c2)cc2c1C(c1cc(F)ccc1Cl)NC2=O)c1cc(F)cc(C(F)(F)F)c1 (stereo not drawn) [Compound I-1371] | ≤ 100 |
| O=C1N[C@@H](c2cc(F)ccc2Cl)c2c(NC(=O)N3C[C@@](O)(C(F)(F)F)c4cc(F)ccc43)ccc(Cl)c21 (single isomer, unassigned) [Compound I-2621] | 500 to 1000 |
| CS(=O)(=O)c1ccccc1-c1cc(NC(=O)c2cc(F)cc(C(F)(F)F)c2)c2c(c1)C(=O)NC2c1cc(F)ccc1Cl (stereo not drawn) [Compound I-1195] | ≤ 100 |
| CC1(C2NC(=O)c3cccc(NC(=O)c4cc(F)cc(C(F)(F)F)c4)c32)CC1 (racemic) [Compound I-1791] | 10000 to 100000 |
| Cn1ccnc1C(C)(O)c1cc(NC(=O)c2cc(F)cc(C(F)(F)F)c2)c2c(c1)C(=O)NC2c1cc(F)ccc1Cl (stereo not drawn) [Compound I-1199] | ≤ 100 |
| O=C(Nc1ccnc2c1C(c1ccccc1Cl)NC2=O)c1cc(F)c(F)c(Cl)c1 (stereo not drawn) [Compound I-550] | 500 to 1000 |
| O=C(Nc1cccc2c1C(c1ccc(C3CC3)cc1Cl)NC2=O)c1cc(F)cc(C(F)(F)F)c1 (stereo not drawn) [Compound I-424] | 1000 to 10000 |
| O=C(Nc1cc(-c2ccc3nc(C(F)F)nn3c2)cc2c1[C@H](c1cc(F)ccc1Cl)NC2=O)c1cc(F)cc(C(F)(F)F)c1 [Compound I-1987] | ≤ 100 |
| O=C(Nc1cccc(C(F)(F)F)c1)c1cccc2c1C(c1cc(F)ccc1Cl)NC2=O (stereo not drawn) [Compound I-2189] | 1000 to 10000 |
| N#Cc1cc(NC(=O)N2C[C@@H](O)c3cc(F)ccc32)c2c(c1)C(=O)N[C@@H]2c1cc(F)ccc1Cl (single isomer, unassigned) [Compound I-2492] | 500 to 1000 |
| CC(C)(C#N)c1cc(NC(=O)c2cc(F)cc(C(F)(F)F)c2)c2c(c1)C(=O)NC2c1cc(F)ccc1Cl (stereo not drawn) [Compound I-1268] | ≤ 100 |
| O=C(Nc1cc(N2CC(C(F)F)C2)nc2c1C(c1cc(F)ccc1Cl)NC2=O)c1cc(F)cc(C(F)(F)F)c1 (stereo not drawn) [Compound I-487] | ≤ 100 |

From patent publication US12581252B2, “Substituted pyrrolo[3,4-b]pyridines as PI3K-α inhibitors” (Relay Therapeutics, Inc., priority 2020, dated 2026)
